The text below walks through data of PMC9603521, “WYBQ-4: a New Bactericidal Agent against Methicillin-Resistant Staphylococcus aureus” (Microbiology Spectrum, 2022).

In general, IC50 refers to the concentration that gives 50% inhibition. Read a high IC50 as a need for much substance.

The subject of series [1] is MRSA USA300. Kind of series: Mouse lung infection model, survival. In kind it is in vivo, mice. The settings on record: mouse pneumonia, USA300 2 × 10^8 CFU, 12-h intervals, within 72 h. Here is the method: The animal experiments were performed using 6-week-old male C57BL/6J mice, and the mouse model of lung infection caused by MRSA USA300 was established as previously described ([43], [44]). For the survival rate, mice (10 per group) were infected with MRSA USA300 (2 × 10^8 CFU per mouse). After 2 h of infection, mice were given WYBQ-4 via subcutaneous injection and reinjected at 12-h intervals, whereas mice were treated with ceftaroline fosamil at the same doses and served as positive controls. Mice injected with only MRSA USA300 were used as a negative control. Survival of mice was recorded within 72 h, and survival rates were calculated.

Series [2] concerns MRSA USA300. Kind of series: TEM analysis of cell morphology / division defects. In kind it is cell-based, Staphylococcus aureus. Particulars: 4 μg/mL (1/2× MIC), 3 h. Here is the method:
MRSA USA300 was cultured overnight, diluted (1:100) into 20 mL of Trypticase soy broth (TSB) medium, and incubated at 30°C with shaking until the optical density at 600 nm (OD600) reached 0.3. […] Bacterial cells treated with 4 μg/mL ceftaroline fosamil (1/2 of their respective MIC) served as a control group. Untreated S. aureus served as a negative control. Bacteria were collected and washed in PBS and resuspended in 4% (vol/vol) glutaraldehyde fixation overnight. The fixed samples were further processed, and morphological changes in S. aureus were observed by TEM (JSM-7900F; JEOL, Japan).

The subject of the next series is HEK-293T cells. Kind of series: Cytotoxicity assay (cell viability). In kind it is cell-based. The protocol: (§1) Cytotoxicity assay. The cytotoxicity of WYBQ-4 against A549, HEK-293T, or HepG2 cells was evaluated with a cell counting kit-8 kit (CCK8; US Everbright, Suzhou, China) according to the manufacturer’s instructions ([41]). In brief, 5 × 10^4 cells were seeded in 96-well plates containing prewarmed medium (100 μL) and incubated for 24 h at 37°C in 5% CO2. Then, various concentrations of WYBQ-4 (0 to 512 μg/mL) were added and further incubated for 24 h. Afterward, the cells were incubated with 100 μL of medium with 10 μL of CCK8 solution (Sigma-Aldrich) for 4 h. Finally, a solution of the purple precipitate dissolved in dimethyl sulfoxide (DMSO) was added to a 96-well plate, and the absorbance was measured at 450 nm.

The test system of the next series is HepG2 cells. Kind of series: Cytotoxicity assay (cell viability). The class given is cell-based. Here is the method: as §1
Another series relates to A549 cells. As to the kind of experiment: Cytotoxicity assay (cell viability). The class given is cell-based. Here is the method: as §1
The next series deals with MSSA ATCC 29213. Kind of series: Postantibiotic effect (viable plate count). The class given is cell-based, Staphylococcus aureus. The settings on record: 1 h exposure. The protocol:
The postantibiotic effect (PAE) of WYBQ-4 against MSSA 29213 was determined in MHB agar using the viable plate count method ([39]). […] After incubation at 37°C for 1 h, WYBQ-4 was removed by centrifugation and washing with phosphate-buffered saline (PBS). Subsequently, fresh MHB medium was added to resuspend the bacteria, and the mixture was incubated at 37°C with shaking. The number of colonies was counted by taking 10 μL of bacteria at 1-h intervals and applying them to BHI agar plates after appropriate dilution. PAE duration was calculated as follows: time (h) for bacteria to return to log-phase growth after drug treatment – time (h) for the control group to return to log-phase growth ([40]).

The subject of the next series is Enterococcus faecalis. Kind of series: MIC by broth microdilution (CLSI). The class given is cell-based. Particulars: compared to that against Staphylococcus. In general terms: In broth dilution the organism is exposed to a series of concentrations in liquid medium.
The target in another series is PBP2 (Staphylococcus aureus, UniProt Q9R744). As to the kind of experiment: PBP binding, bocillin competition fluorescence gel assay. The protocol:
(§2) Using the genome of S. aureus USA300 as a template, PCR was performed to amplify PBP1, PBP2, PBP3, PBP4, and PBP2a genes with primers designed according to Table 1. Then, the amplified fragments were treated with BamHI/XhoI and then inserted into the cloning site of the BamHI/XhoI-digested pET28a to yield pET28a-PBP1, pET28a-PBP2, pET28a-PBP3, pET28a-PBP4, and pET28a-PBP2a, respectively. The plasmid was transformed into E. coli BL21(DE3) and cultured in LB medium containing Kan resistance until the OD600 reached 0.6, and PBP expression was induced overnight at 16°C by adding 0.5 mM IPTG (isopropyl-β-D-thiogalactopyranoside). The bacteria were then lysed by sonication, the […] was collected, and the proteins were purified using a HIS-Select nickel affinity gel system (Beyotime, Shanghai, China).
(§3) PBP binding assays were performed as previously described ([30], [31]). Selective labeling of PBP from preincubated samples ([…] protein) with various concentrations of WYBQ-4 was performed for 15 min, and then 25 μM BOCILLIN FL (Invitrogen) was added, followed by an additional 10 min at 37°C. Proteins were separated by SDS-PAGE, and the PBPs were detected by a gel fluorescence imaging instrument (excitation, 488 nm; emission, 530 nm).

A further series has as its target PBP3 (Staphylococcus aureus, UniProt Q9XDB3). The description is as above. Particulars: dose-dependent. Here is the method: as §2, §3
The next series concerns the target PBP1 (Staphylococcus aureus, UniProt Q53725). The series is described as above. The settings on record: dose-dependent. Here is the method:
as §2, §3

The next series addresses PBP4 (Staphylococcus aureus, UniProt P72355). Described as above. The settings on record: dose-dependent. The protocol:
as §2, §3

The target in the next series is PBP2a (Staphylococcus aureus, UniProt Q53707). Described as above. The protocol: as §2, §3
Series [3] is described as follows: Acute toxicity test in mice. The settings on record: intraperitoneal injection 300 mg/kg. In kind it is in vivo. Here is the method:
Acute toxicity test in mice. The acute toxicity test in mice was performed according to the requirements of the Chinese Guidelines for Acute Toxicity of Chemicals (H-GPT1-1) ([42]). In brief, each group of 6 female mice (6 to 8 weeks old, weights of 18 to 20 g, BALB/c) was intraperitoneally injected with a single dose of 300, 150, or 75 mg/kg body weight of WYBQ-4. The mice were injected with PBS as a control group. Then, the poisoning symptoms, abnormal behavior, and survival of the mice in each group were observed within 72 h.

“And” between values parts separate entries of the source, which are not always exact repeats. Equal values may be shown once. Read-outs that look alike come from different tables or passages of the source.

Chain of PBP2a (Q53707 entry or part of it): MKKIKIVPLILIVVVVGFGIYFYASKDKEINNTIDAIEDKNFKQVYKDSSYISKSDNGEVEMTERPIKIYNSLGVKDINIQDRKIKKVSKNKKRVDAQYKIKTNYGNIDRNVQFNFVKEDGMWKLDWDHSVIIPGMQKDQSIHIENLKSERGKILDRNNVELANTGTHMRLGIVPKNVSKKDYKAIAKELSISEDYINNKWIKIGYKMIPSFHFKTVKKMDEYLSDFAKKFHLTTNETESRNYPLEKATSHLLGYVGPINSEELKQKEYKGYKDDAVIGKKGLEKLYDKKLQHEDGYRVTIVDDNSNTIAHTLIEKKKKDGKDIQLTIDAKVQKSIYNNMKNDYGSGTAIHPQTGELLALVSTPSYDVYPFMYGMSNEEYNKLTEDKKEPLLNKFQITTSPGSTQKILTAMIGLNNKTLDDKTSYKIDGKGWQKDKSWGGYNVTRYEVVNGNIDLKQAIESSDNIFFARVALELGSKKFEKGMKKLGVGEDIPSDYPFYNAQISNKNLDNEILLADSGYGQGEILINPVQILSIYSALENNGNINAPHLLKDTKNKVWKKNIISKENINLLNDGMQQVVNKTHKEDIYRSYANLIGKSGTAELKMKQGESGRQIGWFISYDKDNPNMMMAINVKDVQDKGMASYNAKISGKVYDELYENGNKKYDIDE
Chain of PBP3 (Q9XDB3 1-691): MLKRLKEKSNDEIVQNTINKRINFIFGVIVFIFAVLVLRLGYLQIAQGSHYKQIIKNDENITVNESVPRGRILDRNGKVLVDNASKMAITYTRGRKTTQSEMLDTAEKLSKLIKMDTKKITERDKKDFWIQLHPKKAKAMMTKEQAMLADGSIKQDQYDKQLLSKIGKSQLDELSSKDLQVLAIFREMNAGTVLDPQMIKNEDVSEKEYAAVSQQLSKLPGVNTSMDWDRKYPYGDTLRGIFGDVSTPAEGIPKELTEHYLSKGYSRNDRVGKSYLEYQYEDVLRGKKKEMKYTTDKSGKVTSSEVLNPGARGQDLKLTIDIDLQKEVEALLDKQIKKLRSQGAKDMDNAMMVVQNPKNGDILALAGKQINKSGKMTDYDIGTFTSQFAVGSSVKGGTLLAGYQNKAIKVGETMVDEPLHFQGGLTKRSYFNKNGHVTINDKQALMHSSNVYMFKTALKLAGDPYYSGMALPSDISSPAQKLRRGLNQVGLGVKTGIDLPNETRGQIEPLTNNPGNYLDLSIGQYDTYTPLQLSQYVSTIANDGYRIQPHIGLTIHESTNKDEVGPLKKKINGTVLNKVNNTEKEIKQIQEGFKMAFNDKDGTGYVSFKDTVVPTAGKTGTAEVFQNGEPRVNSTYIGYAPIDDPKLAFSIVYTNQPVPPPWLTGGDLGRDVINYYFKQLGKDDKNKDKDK
Chain of PBP1 (Q53725 1-744): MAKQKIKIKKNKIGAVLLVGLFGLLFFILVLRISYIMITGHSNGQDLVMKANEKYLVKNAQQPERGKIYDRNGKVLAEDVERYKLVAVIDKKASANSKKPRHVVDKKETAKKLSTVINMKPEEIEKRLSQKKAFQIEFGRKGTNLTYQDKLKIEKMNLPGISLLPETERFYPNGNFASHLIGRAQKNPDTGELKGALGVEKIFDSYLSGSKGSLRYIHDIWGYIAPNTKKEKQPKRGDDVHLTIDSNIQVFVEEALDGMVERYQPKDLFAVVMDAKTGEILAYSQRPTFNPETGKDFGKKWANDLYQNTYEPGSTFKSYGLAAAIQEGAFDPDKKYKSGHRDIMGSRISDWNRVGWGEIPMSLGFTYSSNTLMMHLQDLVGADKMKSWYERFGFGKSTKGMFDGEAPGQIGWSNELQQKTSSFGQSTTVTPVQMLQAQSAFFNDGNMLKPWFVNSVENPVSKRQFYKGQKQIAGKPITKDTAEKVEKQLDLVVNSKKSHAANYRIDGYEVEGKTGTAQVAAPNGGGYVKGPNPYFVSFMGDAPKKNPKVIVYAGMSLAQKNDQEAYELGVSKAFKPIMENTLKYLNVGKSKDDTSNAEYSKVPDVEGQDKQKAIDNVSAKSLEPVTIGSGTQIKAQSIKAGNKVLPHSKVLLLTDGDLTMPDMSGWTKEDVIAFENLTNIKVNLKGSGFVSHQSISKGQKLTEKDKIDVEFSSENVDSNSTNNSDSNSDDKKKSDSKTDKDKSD
Chain of PBP2 (Q9R744 1-727): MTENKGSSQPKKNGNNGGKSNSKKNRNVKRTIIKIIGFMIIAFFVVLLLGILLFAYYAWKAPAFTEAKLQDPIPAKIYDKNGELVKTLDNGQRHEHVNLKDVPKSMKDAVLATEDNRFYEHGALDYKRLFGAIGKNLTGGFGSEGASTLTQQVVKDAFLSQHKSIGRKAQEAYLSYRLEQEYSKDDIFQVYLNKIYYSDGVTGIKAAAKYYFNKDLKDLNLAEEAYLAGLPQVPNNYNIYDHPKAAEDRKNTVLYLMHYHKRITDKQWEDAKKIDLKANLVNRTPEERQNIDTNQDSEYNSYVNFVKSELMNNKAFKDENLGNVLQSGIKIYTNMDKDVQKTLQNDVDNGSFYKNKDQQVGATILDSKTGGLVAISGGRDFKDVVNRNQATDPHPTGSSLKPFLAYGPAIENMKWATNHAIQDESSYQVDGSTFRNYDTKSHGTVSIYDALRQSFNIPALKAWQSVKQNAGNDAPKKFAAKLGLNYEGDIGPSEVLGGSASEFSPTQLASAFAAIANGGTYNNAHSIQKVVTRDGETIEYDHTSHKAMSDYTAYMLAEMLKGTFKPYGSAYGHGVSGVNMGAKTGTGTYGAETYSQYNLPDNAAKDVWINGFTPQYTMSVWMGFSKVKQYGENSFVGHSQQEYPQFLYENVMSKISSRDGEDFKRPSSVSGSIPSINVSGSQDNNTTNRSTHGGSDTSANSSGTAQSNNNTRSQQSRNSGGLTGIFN
Chain of PBP4 (P72355 25-431): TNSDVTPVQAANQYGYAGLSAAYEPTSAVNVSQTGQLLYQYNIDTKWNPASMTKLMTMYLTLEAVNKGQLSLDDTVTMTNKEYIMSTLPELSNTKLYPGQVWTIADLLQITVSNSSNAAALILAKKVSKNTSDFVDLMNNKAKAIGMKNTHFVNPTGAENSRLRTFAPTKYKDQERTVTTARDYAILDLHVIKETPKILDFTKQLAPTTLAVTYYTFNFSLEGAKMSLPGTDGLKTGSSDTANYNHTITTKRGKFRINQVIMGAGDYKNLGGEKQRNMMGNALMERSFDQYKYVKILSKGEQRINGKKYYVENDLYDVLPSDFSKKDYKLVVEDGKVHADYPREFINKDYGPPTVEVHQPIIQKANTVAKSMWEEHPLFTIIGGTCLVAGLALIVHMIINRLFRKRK

For the compound `C#CCO[C@@]1(NC(=O)CSc2cccc(C)c2)C(=O)N2C(C(=O)O)=C(CSc3nnnn3C)CSC21` (stereo partly drawn) [WYBQ-4], the survival rate was 36.67% in the series on MRSA USA300 [1] (37.5 mg/kg subcutaneous) and 70.00% in the series with MRSA USA300 [1] (75 mg/kg subcutaneous). The “Asymmetry of bacterial division (number of cells)” value in the series on MRSA USA300 [2] came out at 38. The “Distortion of septa (number of cells)” value in the series with MRSA USA300 [2] was determined as 27. Further, the “Percentage of defective cells (asymmetry of bacterial division)” value in the series with MRSA USA300 [2] was determined as 40.9 b %. In addition, in the series with MRSA USA300 [2], the “Percentage of defective cells (distortion of septa)” value is reported as 29.0 a %. Also, the “Percentage of defective cells (thin cell walls)” value in the series with MRSA USA300 [2] is 63.4% and 63.4 c %. Further, the “Thin cell walls (number of cells)” value in the series on MRSA USA300 [2] worked out at 59. For the same compound, the cell viability result in the series with HEK-293T cells is “still viable”; with HEK-293T cells (HEK-293T, 0-128 μg/mL), “did not affect the viability”; in the series on HepG2 cells, “still viable”; with HepG2 cells (HepG2, 0-128 μg/mL), “did not affect the viability”; in the series with A549 cells it was “still viable”; with A549 cells (A549, 0-128 μg/mL), “did not affect the viability”. Besides, the PAE with MSSA ATCC 29213 (2× MIC) was determined as 1.5 h; with MSSA ATCC 29213 (8× MIC), 3.5 h. For the same compound, in the series on Enterococcus faecalis, the antibacterial activity result was “weak”. For the same compound, the “concentration at which bocillin fluorescence disappeared completely” value on PBP2 was determined as 0.25 µg/mL. Also, the “affinity for PBP3 (bocillin competition)” value on PBP3 is listed as “had an affinity”. For the same compound, on PBP1, the “affinity for PBP1 (bocillin competition)” value is recorded as “had an affinity”. Moreover, at PBP4, the “affinity for PBP4 (bocillin competition)” value is given as “had an affinity”. The IC50 at PBP2a is 3.66 µM. On PBP2a (PBP2a), the “concentration that completely competed for the binding of bocillin” value came out at 2 µg/mL. Also, in series [3], the “acute toxicity, survival of mice” value was “did not affect the survival of the mice”.
